The supplement of paper PMC10307832

How the values were obtained:
Assay in all cases: relative viability (nuclei count vs DMSO), 5 days (fraction); higher = more cells survive
NCI-H3122 = test system: NCI-H3122
In short: (§1)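 For relative viability, nuclei counts in treated wells were divided by those in vehicle wells. Lung cancer cell lines had been pin-tool dosed in 1536-well plates the day after seeding and cultured for 5 days, then fixed and stained in one step (final 0.05% Triton X-100, 1% formaldehyde, 1 ug/ml Hoechst) and imaged at 4×. Doses were one drug alone or a fixed anchor-drug dose plus five library-drug doses (not always all listed) in √10 steps, and values are duplicate-plate medians.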

201T = test system: 201T
In short: as §1

NCI-H1734 = test system: NCI-H1734
In short: as §1

NCI-H1944 = test system: NCI-H1944
In short: as §1

LXF-289 = test system: LXF-289
In short: as §1

NCI-H1755 = test system: NCI-H1755
In short: as §1

LC-2-ad = test system: LC-2-ad
In short: as §1

EKVX = test system: EKVX
In short: as §1

NCI-H1975 = test system: NCI-H1975
In short: as §1

COR-L 105 = test system: COR-L 105
In short: as §1

NCI-H1993 = test system: NCI-H1993
In short: as §1

NCI-H596 = test system: NCI-H596
In short: as §1

## O=C(O)CCCCC(CCSCc1ccccc1)SCc1ccccc1 (configuration not stated) [CPI-613] + CS(=O)(=O)N1CCN(Cc2cc3nc(-c4cccc5[nH]ncc45)nc(N4CCOCC4)c3s2)CC1 [Pictilisib] (partner 1 µM)
NCI-H3122; first compound 5 µM
  relative viability: 0.587
NCI-H3122; first compound 15.81 µM
  relative viability: 0.614
NCI-H3122; first compound 50 µM
  relative viability: 0.591
NCI-H3122; first compound 158.11 µM
  relative viability: 0.605
NCI-H3122; first compound 500 µM
  relative viability: 0.031
201T; first compound 5 µM
  relative viability: 0.722
201T; first compound 15.81 µM
  relative viability: 0.654
201T; first compound 50 µM
  relative viability: 0.667
201T; first compound 158.11 µM
  relative viability: 0.665
201T; first compound 500 µM
  relative viability: 0.647
NCI-H1734; first compound 5 µM
  relative viability: 0.466
NCI-H1734; first compound 15.81 µM
  relative viability: 0.383
NCI-H1734; first compound 50 µM
  relative viability: 0.434
NCI-H1734; first compound 158.11 µM
  relative viability: 0.274
NCI-H1734; first compound 500 µM
  relative viability: 0.113
NCI-H1944; first compound 5 µM
  relative viability: 0.336
NCI-H1944; first compound 15.81 µM
  relative viability: 0.371
NCI-H1944; first compound 50 µM
  relative viability: 0.351
NCI-H1944; first compound 158.11 µM
  relative viability: 0.347
NCI-H1944; first compound 500 µM
  relative viability: 0.332
LXF-289; first compound 5 µM
  relative viability: 0.716
LXF-289; first compound 15.81 µM
  relative viability: 0.752
LXF-289; first compound 50 µM
  relative viability: 0.728
LXF-289; first compound 158.11 µM
  relative viability: 0.479
LXF-289; first compound 500 µM
  relative viability: 0.0147
NCI-H1755; first compound 5 µM
  relative viability: 0.39
NCI-H1755; first compound 15.81 µM
  relative viability: 0.4
NCI-H1755; first compound 50 µM
  relative viability: 0.415
NCI-H1755; first compound 158.11 µM
  relative viability: 0.359
NCI-H1755; first compound 500 µM
  relative viability: 0.116
LC-2-ad; first compound 5 µM
  relative viability: 0.455
LC-2-ad; first compound 15.81 µM
  relative viability: 0.427
LC-2-ad; first compound 50 µM
  relative viability: 0.473
LC-2-ad; first compound 158.11 µM
  relative viability: 0.211
LC-2-ad; first compound 500 µM
  relative viability: 0.0075
EKVX; first compound 5 µM
  relative viability: 0.43
EKVX; first compound 15.81 µM
  relative viability: 0.451
EKVX; first compound 50 µM
  relative viability: 0.509
EKVX; first compound 158.11 µM
  relative viability: 0.415
EKVX; first compound 500 µM
  relative viability: 0.406
NCI-H1975; first compound 5 µM
  relative viability: 0.292
NCI-H1975; first compound 15.81 µM
  relative viability: 0.225
NCI-H1975; first compound 50 µM
  relative viability: 0.314
NCI-H1975; first compound 158.11 µM
  relative viability: 0.258
NCI-H1975; first compound 500 µM
  relative viability: 0.0574
COR-L 105; first compound 5 µM
  relative viability: 0.399
COR-L 105; first compound 15.81 µM
  relative viability: 0.377
COR-L 105; first compound 50 µM
  relative viability: 0.38
COR-L 105; first compound 158.11 µM
  relative viability: 0.328
COR-L 105; first compound 500 µM
  relative viability: 0.288
NCI-H1993; first compound 5 µM
  relative viability: 0.762
NCI-H1993; first compound 15.81 µM
  relative viability: 0.698
NCI-H1993; first compound 50 µM
  relative viability: 0.715
NCI-H1993; first compound 158.11 µM
  relative viability: 0.648
NCI-H1993; first compound 500 µM
  relative viability: 0.496
NCI-H596; first compound 5 µM
  relative viability: 0.423
NCI-H596; first compound 15.81 µM
  relative viability: 0.442
